Source: ChEMBL document CHEMBL1201862, “PubChem BioAssay data set” (2004)
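Compound exposure: 48 hours, 5 concentrations, 96-well plates. GI50 marks 50% less growth.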 Calls of active or inactive are those of the source. Rule as the data show it: active = GI50 up to about 1.1 µM and inactive = higher.

Columns and labels:
Assay in all cases: NCI anticancer screen, dose series, 48 h
A498 = test system: A498
CCRF-CEM = test system: CCRF-CEM
Hs-578T = test system: Hs-578T
IGROV-1 = test system: IGROV-1
KM12 = test system: KM12
MDA-MB-435 = test system: MDA-MB-435
MDA-N = test system: MDA-N
MOLT-4 = test system: MOLT-4
NCI-H226 = test system: NCI-H226
NCI/ADR-RES = test system: NCI/ADR-RES
PC-3 = test system: PC-3
RPMI-8226 = test system: RPMI-8226
SF-268 = test system: SF-268
SF-295 = test system: SF-295
SF-539 = test system: SF-539
SK-MEL-5 = test system: SK-MEL-5
T47D = test system: T47D
TK-10 = test system: TK-10
UO-31 = test system: UO-31

Structure (SMILES) | GI50 (A498) | GI50 (CCRF-CEM) | GI50 (Hs-578T) | GI50 (IGROV-1) | GI50 (KM12) | GI50 (MDA-MB-435) | GI50 (MDA-N) | GI50 (MOLT-4) | GI50 (NCI-H226) | GI50 (NCI/ADR-RES) | GI50 (PC-3) | GI50 (RPMI-8226) | GI50 (SF-268) | GI50 (SF-295) | GI50 (SF-539) | GI50 (SK-MEL-5) | GI50 (T47D) | GI50 (TK-10) | GI50 (UO-31)
COP(=O)(OC)C1=c2c(C)noc2=C2C=COC2C1=O (centres undefined) | > 100 µM (inactive) | > 100 µM (inactive) | 45.9 µM (inactive) | > 100 µM (inactive) | > 100 µM (inactive) | > 100 µM (inactive) | > 100 µM (inactive) | > 100 µM (inactive) | > 100 µM (inactive) | > 100 µM (inactive) | > 100 µM (inactive) | > 100 µM (inactive) | > 100 µM (inactive) | > 100 µM (inactive) | > 100 µM (inactive) | > 100 µM (inactive) | > 10 µM (inactive) | > 100 µM (inactive) | > 100 µM (inactive)
CCOC(=O)c1cn2c(n1)sc1cc(C)c(C)cc12 | 17.1 µM (inactive) | 24.1 µM (inactive) | 27.6 µM (inactive) | 23 µM (inactive) | 15 µM (inactive) | 20.3 µM (inactive) | 6.04 µM (inactive) | 29 µM (inactive) | 18.9 µM (inactive) | 27.7 µM (inactive) | 21.2 µM (inactive) | 25.6 µM (inactive) | 24 µM (inactive) | 32 µM (inactive) | 14.6 µM (inactive) | 16.5 µM (inactive) | 25.5 µM (inactive) | 24.6 µM (inactive) | 18.8 µM (inactive)
NC1=CN(Cc2ccccc2)C2=N/C(=C\c3ccccc3O)C(=O)N12 | > 100 µM (inactive) | 81.8 µM (inactive) | > 100 µM (inactive) | > 100 µM (inactive) | > 100 µM (inactive) | > 100 µM (inactive) | > 100 µM (inactive) | 96.4 µM (inactive) | > 100 µM (inactive) | > 100 µM (inactive) | > 100 µM (inactive) | 75.7 µM (inactive) | > 100 µM (inactive) | > 100 µM (inactive) | > 100 µM (inactive) | 90.8 µM (inactive) | 94.4 µM (inactive) | > 100 µM (inactive) | 70.3 µM (inactive)
CC(C)=CCC/C(=C\CC/C(=C\CCc1ccoc1)C(=O)O)C(=O)O | > 100 µM (inactive) | > 100 µM (inactive) | > 100 µM (inactive) | > 100 µM (inactive) | > 100 µM (inactive) | > 100 µM (inactive) | > 100 µM (inactive) | > 100 µM (inactive) | > 100 µM (inactive) | > 100 µM (inactive) | > 100 µM (inactive) | > 100 µM (inactive) | 92.3 µM (inactive) | > 100 µM (inactive) | > 100 µM (inactive) | > 100 µM (inactive) | > 100 µM (inactive) | > 100 µM (inactive) | > 100 µM (inactive)
O=C(O)CCC(=O)c1ccc2ccc3cccc4ccc1c2c34 | 67.5 µM (inactive) | 45.3 µM (inactive) | > 100 µM (inactive) | 70.3 µM (inactive) | 55.2 µM (inactive) | 98.2 µM (inactive) | > 100 µM (inactive) | 60.3 µM (inactive) | 49 µM (inactive) | 96.4 µM (inactive) | 67.9 µM (inactive) | 63 µM (inactive) | 61.7 µM (inactive) | 70.6 µM (inactive) | 27.7 µM (inactive) | 58.6 µM (inactive) | 83 µM (inactive) | 49.1 µM (inactive) | 94.6 µM (inactive)
COc1cc(OC)c(-c2oc3ccccc3c(=O)c2O)c(OC)c1 | 3.27 µM (inactive) | 6.75 µM (inactive) | 2.39 µM (inactive) | 4.37 µM (inactive) | 1.99 µM (inactive) | 0.889 µM (active) | 0.867 µM (active) | 3.52 µM (inactive) | > 100 µM (inactive) | 1.77 µM (inactive) | 5.69 µM (inactive) | 4.28 µM (inactive) | > 41.3 µM (inactive) | 2.44 µM (inactive) | 8.73 µM (inactive) | 3.68 µM (inactive) | 4.16 µM (inactive) | > 100 µM (inactive) | > 62.7 µM (inactive)
